Data reported in patent publication US9468661B2, “Pyrrolidine derivatives and their use as complement pathway modulators” (priority 2012, dated 2016).

These compounds were tested against human factor D (Homo sapiens (Human), UniProt P00746) (assay: biochemical). Conditions: Factor D inhibition data using Method 1; recombinant human factor D 10 nM, substrate Z-Lys-thiobenzyl, fluorescence; read-out: IC50.
Type: biochemical
Outline: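 E. coli-expressed recombinant human factor D (10 nM) was preincubated with compound for 1 h at room temperature in 0.1 M Hepes pH 7.5, 1 mM MgCl2, 1 M NaCl, 0.05% CHAPS. Fluorescence (ex 485/em 535 nm) was read after adding Z-Lys-thiobenzyl (200 μM) and 2,4-dinitrobenzenesulfonyl-fluoresceine (25 μM); IC50 came from percent inhibition versus concentration.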

human factor D, sequence (P00746 26-253): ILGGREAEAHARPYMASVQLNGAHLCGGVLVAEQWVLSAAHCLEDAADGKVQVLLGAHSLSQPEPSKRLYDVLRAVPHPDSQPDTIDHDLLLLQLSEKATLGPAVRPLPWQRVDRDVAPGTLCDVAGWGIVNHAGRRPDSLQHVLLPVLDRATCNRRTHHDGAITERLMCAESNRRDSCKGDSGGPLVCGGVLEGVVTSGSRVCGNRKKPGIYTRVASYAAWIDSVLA

| Structure (SMILES) | IC50 |
| --- | --- |
| [2H]C([2H])([2H])[C@@H](NC(=O)[C@@H]1C[C@H]2C[C@H]2N1C(=O)Nc1cn(C(N)=O)c2ccccc12)[C@H]1CC1(Cl)Cl [Example 30, (1R,3S,5R)-2-Aza-bicyclo [3.1.0]hexane-2,3-dicarboxylic acid 2-[(1-carbamoyl-1H-indol-3-yl)-amide] 3-{[(R)-1-((R)-2,2-dichloro-cyclopropyl)-ethyl-2,2,2-D3]-amide}] | 15 nM |
| CC(=O)c1nn(CC(=O)N2[C@@H]3C[C@@H]3C[C@H]2C(=O)NCC2CC(C)C2)c2cnccc12 (stereo partly drawn) [Example 7, (1R,3S,5R)-2-[2-(3-Acetyl-pyrazolo[3,4-c]pyridin-1-yl)-acetyl]-2-aza-bicyclo[3.1.0] hexane-3-carboxylic acid (3-methyl-cyclobutylmethyl)-amide] | 259 nM |
| NC(=O)n1cc(NC(=O)N2[C@@H]3C[C@@H]3C[C@H]2C(=O)NCC2CC=CCC2)c2ccccc21 (stereo partly drawn) [Example 26, (1R,3S,5R)-2-Aza-bicyclo[3.1.0]hexane-2,3-dicarboxylic acid 2-[(1-carbamoyl-1H-indol-3-yl)-amide] 3-[(cyclohex-3-enylmethyl)-amide]] | 305 nM |
| C[C@@H](NC(=O)[C@@H]1C[C@H]2C[C@H]2N1C(=O)Cn1nc(C(N)=O)c2ccncc21)C1CCCCC1 [Example 55, 1-{2-[(1R,3S,5R)-3-((R)-1-Cyclohexyl-ethylcarbamoyl)-2-aza-bicyclo[3.1.0]hex-2-yl]-2-oxo-ethyl}-1H-pyrazolo[3,4-c]pyridine-3-carboxylic acid amide] | 158 nM |
| CC(=O)c1nn(CC(=O)N2[C@@H]3C[C@@H]3C[C@H]2C(=O)N[C@H](CO)C2CCCCC2)c2cnccc12 [Example 9, (1R,3S,5R)-2-[2-(3-Acetyl-pyrazolo[3,4-c]pyridin-1-yl)-acetyl]-2-aza-bicyclo[3.1.0] hexane-3-carboxylic acid ((S)-1-cyclohexyl-2-hydroxy-ethyl)-amide] | 469 nM |
| CC(=O)c1nn(CC(=O)N2[C@@H]3C[C@@H]3C[C@H]2C(=O)NC[C@@H]2C(C)(C)C2(Cl)Cl)c2ccc(OCc3ncccn3)cc12 [Example 103, (1R,3S,5R)-2-{2-[3-Acetyl-5-(pyrimidin-2-ylmethoxy)-indazol-1-yl]-acetyl}-2-aza-bicyclo[3.1.0] hexane-3-carboxylic acid ((S)-2,2-dichloro-3,3-dimethyl-cyclopropylmethyl)-amide] | 70 nM |
| CC(=O)c1nn(CC(=O)N2[C@@H]3C[C@@H]3C[C@H]2C(=O)NC[C@@H]2CC2(Cl)Cl)c2ccc(OCc3ncccn3)cc12 [Example 93, (1R,3S,5R)-2-{2-[3-Acetyl-5-(pyrimidin-2-ylmethoxy)-indazol-1-yl]-acetyl}-2-aza-bicyclo[3.1.0] hexane-3-carboxylic acid ((S)-2,2-dichloro-cyclopropylmethyl)-amide] | 19 nM |
| CC(=O)c1nn(CC(=O)N2[C@@H]3C[C@@H]3C[C@H]2C(=O)NCC2CCCC2(C)C)c2cnccc12 (single isomer, unassigned; dia 2) [Example 20] | 233 nM |
| C[C@@H](NC(=O)[C@@H]1C[C@H]2C[C@H]2N1C(=O)Cn1nc(C(N)=O)c2ccncc21)[C@H]1CC1(Cl)Cl [Example 37, 1-(2-{(1R,3S,5R)-3-[(R)-1-((R)-2,2-Dichloro-cyclopropyl)-ethylcarbamoyl]-2-aza-bicyclo[3.1.0]hex-2-yl}-2-oxo-ethyl)-1H-pyrazolo[3,4-c]pyridine-3-carboxylic acid amide] | 11 nM |
| CC(=O)c1nn(CC(=O)N2[C@@H]3C[C@@H]3C[C@H]2C(=O)NCC2CCCCC2F)c2cnccc12 (mixture of isomers) [Example 16, (1R,3S,5R)-2-[2-(3-Acetyl-pyrazolo[3,4-c]pyridin-1-yl)-acetyl]-2-aza-bicyclo[3.1.0] hexane-3-carboxylic acid (2-fluoro-cyclohexylmethyl)-amide (mixture of 4 diastereomers)] | 174 nM |
| CO[C@H]1[C@@H](C(=O)NC[C@H]2CC2(Cl)Cl)N(C(=O)Cn2nc(C(N)=O)c3ccccc32)C[C@@H]1F [Example 42, 1-(2-{(2S,3S,4S)-2-[((R)-2,2-Dichloro-cyclopropylmethyl)-carbamoyl]-4-fluoro-3-methoxy-pyrrolidin-1-yl}-2-oxo-ethyl)-1H-indazole-3-carboxylic acid amide] | 112 nM |
| CO[C@H]1[C@@H](C(=O)NC[C@H]2CC2(Cl)Cl)N(C(=O)Cn2nc(C(N)=O)c3ccc(Cl)cc32)C[C@@H]1F [Example 41, 6-Chloro-1-(2-{(2S,3S,4S)-2-[((R)-2,2-dichloro-cyclopropylmethyl)-carbamoyl]-4-fluoro-3-methoxy-pyrrolidin-1-yl}-2-oxo-ethyl)-1H-indazole-3-carboxylic acid amide] | 51 nM |
| CC(=O)c1nn(CC(=O)N2[C@@H]3C[C@@H]3C[C@H]2C(=O)NCC2CCC(C)(C)CC2)c2cnccc12 [Example 4, (1R,3S,5R)-2-[2-(3-Acetyl-pyrazolo[3,4-c]pyridin-1-yl)-acetyl]-2-aza-bicyclo[3.1.0] hexane-3-carboxylic acid (4,4-dimethyl-cyclohexylmethyl)-amide] | 955 nM |
| CC1CCCC(CNC(=O)[C@@H]2C[C@H]3C[C@H]3N2C(=O)Cn2nc(C(N)=O)c3ccncc32)C1 (single isomer, unassigned; dia 1) [Example 115] | 877 nM |
| Cc1nccc2c(C(N)=O)nn(CC(=O)N3[C@@H]4C[C@@H]4C[C@H]3C(=O)N[C@H](C)[C@H]3CC3(Cl)Cl)c12 [Example 44, 1-(2-{(1R,3S,5R)-3-[(R)-1-((R)-2,2-Dichloro-cyclopropyl)-ethylcarbamoyl]-2-aza-bicyclo[3.1.0]hex-2-yl}-2-oxo-ethyl)-7-methyl-1H-pyrazolo[3,4-c]pyridine-3-carboxylic acid amide] | 41 nM |
| CC(=O)c1nn(CC(=O)N2[C@@H]3C[C@@H]3C[C@H]2C(=O)NCC2CC2)c2ncccc12 [Example 1, (1R,3S,5R)-2-[2-(3-Acetyl-pyrazolo[3,4-b]pyridin-1-yl)-acetyl]-2-aza-bicyclo[3.1.0]hexane-3-carboxylic acid cyclopropylmethyl-amide] | 4790 nM |
| CC(=O)c1nn(CC(=O)N2[C@@H]3C[C@@H]3C[C@H]2C(=O)NC[C@H]2C(C)(C)C2(Cl)Cl)c2ccc(OCc3ncccn3)cc12 [Example 104, (1R,3S,5R)-2-{2-[3-Acetyl-5-(pyrimidin-2-ylmethoxy)-indazol-1-yl]-acetyl}-2-aza-bicyclo[3.1.0] hexane-3-carboxylic acid ((R)-2,2-dichloro-3,3-dimethyl-cyclopropylmethyl)-amide] | 16 nM |
| CC(=O)c1nn(CC(=O)N2[C@@H]3C[C@@H]3C[C@H]2C(=O)NC2(C3CCCCC3)CC2)c2cnccc12 [Example 15, (1R,3S,5R)-2-[2-(3-Acetyl-pyrazolo[3,4-c]pyridin-1-yl)-acetyl]-2-aza-bicyclo[3.1.0] hexane-3-carboxylic acid (1-cyclohexyl-cyclopropyl)-amide] | 358 nM |

Same assay, conditions: IC50, Factor D inhibition data using Method 1; recombinant human factor D 10 nM, substrate Z-Lys-thiobenzyl, fluorescence

| Structure (SMILES) | IC50 |
| --- | --- |
| NC(=O)c1nn(CC(=O)N2[C@@H]3C[C@@H]3C[C@H]2C(=O)NC(CO)C2CC2(Cl)Cl)c2ccccc12 (single isomer, unassigned; dia 2) [Example 24] | 755 nM |
| [2H]C([2H])([2H])[C@@H](NC(=O)[C@@H]1C[C@H]2C[C@H]2N1C(=O)Cn1nc(C(N)=O)c2ccccc21)[C@H]1CC1(Cl)Cl [Example 121, 1-(2-{(1R,3S,5R)-3-[(R)-1-((R)-2,2-Dichloro-cyclopropyl)-ethyl-2,2,2-D3-carbamoyl]-2-aza-bicyclo[3.1.0]hex-2-yl}-2-oxo-ethyl)-1H-indazole-3-carboxylic acid amide] | 14 nM |
| CC1CCC(CNC(=O)[C@@H]2C[C@H]3C[C@H]3N2C(=O)Cn2nc(C(N)=O)c3ccccc32)C1 (single isomer, unassigned; dia 4) [Example 91] | 46 nM |
| NC(=O)c1nn(CC(=O)N2[C@@H]3C[C@@H]3C[C@H]2C(=O)NC(CO)C2CC2(Cl)Cl)c2ccccc12 (single isomer, unassigned; dia 4) [Example 51] | 246 nM |
| CC(=O)c1nn(CC(=O)N2[C@@H]3C[C@@H]3C[C@H]2C(=O)NC(C)C2CC2(Cl)Cl)c2ccc(OCc3ncccn3)cc12 (single isomer, unassigned; dia 3) [Example 34] | 513 nM |
| CC(=O)c1nn(CC(=O)N2[C@@H]3C[C@@H]3C[C@H]2C(=O)NCC2C(C)C2(Cl)Cl)c2ccc(OCc3ncccn3)cc12 (single isomer, unassigned; dia 2) [Example 109, (1R,3S,5R)-2-{2-[3-Acetyl-5-(pyrimidin-2-ylmethoxy)-indazol-1-yl]-acetyl}-2-aza-bicyclo[3.1.0] hexane-3-carboxylic acid ((1R,3S) or (1S,3R)-2,2-dichloro-3-methyl-cyclopropylmethyl)-amide-Dia 2] | 49 nM |
| CC(=O)c1nn(CC(=O)N2[C@@H]3C[C@@H]3C[C@H]2C(=O)NCC2C(C)C2(Cl)Cl)c2ccc(OCc3ncccn3)cc12 (single isomer, unassigned; dia 2) [Example 76, (1R,3S,5R)-2-{2-[3-Acetyl-5-(pyrimidin-2-ylmethoxy)-indazol-1-yl]-acetyl}-2-aza-bicyclo[3.1.0] hexane-3-carboxylic acid ((1R,3R) or (1S,3S)-2,2-dichloro-3-methyl-cyclopropylmethyl)-amide-Dia 2] | 3 nM |
| CC1C(CNC(=O)[C@@H]2C[C@H]3C[C@H]3N2C(=O)Cn2nc(C(N)=O)c3ccncc32)C1(Cl)Cl (single isomer, unassigned; dia 1) [Example 79, 1-(2-{(1R,3S,5R)-3-[((1R,3S) or (1S,3R)-2,2-Dichloro-3-methyl-cyclopropylmethyl)-carbamoyl]-2-aza-bicyclo[3.1.0]hex-2-yl}-2-oxo-ethyl)-1H-pyrazolo[3,4-c]pyridine-3-carboxylic acid amide-Dia 1] | 229 nM |
